Reference: paper PMC3656107, “Polymorphisms in the F8 Gene and MHC-II Variants as Risk Factors for the Development of Inhibitory Anti-Factor VIII Antibodies during the Treatment of Hemophilia A: A Computational Assessment” (PLoS Computational Biology, 2013)
One block for each sequence: values may come before it.

Assays:
[1] = target: T1, MHC-II DRB1*07:01 (Homo sapiens, UniProt P01903+P01911, A100R/A102G/A103Q/D57E/D86V/E43K/F76Y/K127E/L162R/M171V/P40G/Q125H/Q99D/R33Q/R42Y/R54Q/S133A/S66F/T210M/V115G/Y107V/Y59L/Y89S); test: Cell-free REVEAL class II stability assay; conditions: half-life of peptide-MHC-II complex (h, capped at 120) x Binding Score / 100, conformational ELISA
Method in brief: (§1)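 Half-lives of peptide–MHC-II complexes measured cell-free; on-rates tracked 96 hr at 10°C, off-rates from dissociating complexes; timed samples frozen in liquid nitrogen. Readout: conformational ELISA (anti-HLA antibody). One-phase curve fits give k, then t1/2; normalized stability = t1/2 × Binding Score / 100.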

[2] = target: T2, MHC-II DRB1*11:01 (Homo sapiens, UniProt P01903+P01911, A100R/A169T/A87E/I96F/K41T/L162R/M171V/P40S/Q125H/Q178H/Q39Y/Q99D/R42S/S66Y/T262R/V115G/W38E); test: Cell-free REVEAL class II stability assay; conditions: half-life of peptide-MHC-II complex (h, capped at 120) x Binding Score / 100, conformational ELISA
Method in brief: as §1

[3] = target: T3, MHC-II DRB1*15:01 (Homo sapiens, UniProt P01903+P01911); test: Cell-free REVEAL class II stability assay; conditions: half-life of peptide-MHC-II complex (h, capped at 120) x Binding Score / 100, conformational ELISA
T3 construct: purchased ProImmune
Method in brief: as §1

[4] = target: T4, MHC-II DRB1*03:01 (Homo sapiens, UniProt P01903+P01911, A100K/A102G/A103R/A169T/F55Y/I96L/K41T/L162R/M171V/P40S/Q125H/Q178H/Q39Y/R42S/S66N/T106N/T262R/W38E/Y61H); test: Cell-free REVEAL class II stability assay; conditions: half-life of peptide-MHC-II complex (h, capped at 120) x Binding Score / 100, conformational ELISA
Method in brief: as §1

[5] = target: T5, MHC-II DRB1*15:03 (Homo sapiens, UniProt P01903+P01911, Y59H); test: Cell-free REVEAL class II stability assay; conditions: half-life of peptide-MHC-II complex (h, capped at 120) x Binding Score / 100, conformational ELISA
T5 construct: purchased ProImmune
Method in brief: as §1

[6] = target: T6, MHC-II DRB1*04:01 (Homo sapiens, UniProt P01903+P01911, A100K/A169T/F76Y/I96L/K127E/L162R/M171V/N62H/P40V/Q125Y/R42H/S133A/S149N/S66Y/V115G/V209L/W38E); test: Cell-free REVEAL class II stability assay; conditions: half-life of peptide-MHC-II complex (h, capped at 120) x Binding Score / 100, conformational ELISA
Method in brief: as §1

[7] = target: T1, MHC-II DRB1*07:01; test: Cell-free REVEAL class II binding assay; conditions: signal of test peptide as percentage of allele-specific positive control peptide, fluorescence, conformation-specific monoclonal antibody
Method in brief: (§2)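 REVEAL format, cell-free. Antibody-based fluorescence detection of native peptide–MHC-II complex; value reported as % of allele-matched positive control peptide signal.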

[8] = target: T2, MHC-II DRB1*11:01; test: Cell-free REVEAL class II binding assay; conditions: signal of test peptide as percentage of allele-specific positive control peptide, fluorescence, conformation-specific monoclonal antibody
Method in brief: as §2

[9] = target: T3, MHC-II DRB1*15:01; test: Cell-free REVEAL class II binding assay; conditions: signal of test peptide as percentage of allele-specific positive control peptide, fluorescence, conformation-specific monoclonal antibody
Method in brief: as §2

[10] = target: T4, MHC-II DRB1*03:01; test: Cell-free REVEAL class II binding assay; conditions: signal of test peptide as percentage of allele-specific positive control peptide, fluorescence, conformation-specific monoclonal antibody
Method in brief: as §2

[11] = target: T5, MHC-II DRB1*15:03; test: Cell-free REVEAL class II binding assay; conditions: signal of test peptide as percentage of allele-specific positive control peptide, fluorescence, conformation-specific monoclonal antibody
Method in brief: as §2

[12] = target: T6, MHC-II DRB1*04:01; test: Cell-free REVEAL class II binding assay; conditions: signal of test peptide as percentage of allele-specific positive control peptide, fluorescence, conformation-specific monoclonal antibody
Method in brief: as §2

T4 sequence (P01903 26-254 limits assumed, other chains not shown): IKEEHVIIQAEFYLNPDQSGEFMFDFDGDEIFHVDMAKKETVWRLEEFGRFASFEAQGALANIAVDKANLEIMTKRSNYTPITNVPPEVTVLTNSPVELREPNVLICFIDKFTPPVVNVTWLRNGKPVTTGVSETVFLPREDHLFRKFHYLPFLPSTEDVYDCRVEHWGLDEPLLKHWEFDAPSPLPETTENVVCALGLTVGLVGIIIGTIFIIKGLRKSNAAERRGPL
T2 sequence (P01903 26-254 limits assumed, other chains not shown): as above
T5 sequence (P01903 26-254, other chains not shown): as the sequence (P01903 26-254 limits assumed, other chains not shown) above

Sequence: SGYTFKHKMVYEDTL [synthetic wild type FVIII 15 mer peptide]
Stability Index [1]: 0.0
Stability Index [2]: 2.2
Stability Index [3]: 1.2
Stability Index [4]: 0.0
Stability Index [5]: 0.0
Stability Index [6]: 0.1
Binding Score [7]: 0.0%
Binding Score [8]: 14.9%
Binding Score [9]: 1.0%
Binding Score [10]: 1.3%
Binding Score [11]: 0.0%
Binding Score [12]: 1.0%

Sequence: SLHAVGVSYWKASEG [synthetic wild type FVIII 15 mer peptide]
Stability Index [1]: 0.0
Stability Index [2]: 0.0
Stability Index [3]: 1.4
Stability Index [4]: 0.1
Stability Index [5]: 0.0
Stability Index [6]: 0.1
Binding Score [7]: 0.2%
Binding Score [8]: 0.3%
Binding Score [9]: 18.1%
Binding Score [10]: 1.3%
Binding Score [11]: 0.7%
Binding Score [12]: 1.3%

Sequence: SQFIIMYSLDGKKWQ [synthetic wild type FVIII 15 mer peptide]
Stability Index [1]: 0.0
Stability Index [2]: 27.9
Stability Index [3]: 1746.5
Stability Index [4]: 0.5
Stability Index [5]: 16.4
Stability Index [6]: 11.8
Binding Score [7]: 0.0%
Binding Score [8]: 100.8%
Binding Score [9]: 1455.4%
Binding Score [10]: 4.8%
Binding Score [11]: 14.6%
Binding Score [12]: 38.1%

Sequence: SRPYNIYPHGITDVR [synthetic wild type FVIII 15 mer peptide, region of ns-SNP R484H]
Stability Index [1]: 0.0
Stability Index [2]: 0.4
Stability Index [3]: 0.1
Stability Index [4]: 0.0
Stability Index [5]: 0.1
Stability Index [6]: 0.0
Binding Score [7]: 0.0%
Binding Score [8]: 12.0%
Binding Score [9]: 0.1%
Binding Score [10]: 0.1%
Binding Score [11]: 0.2%
Binding Score [12]: 0.2%

Sequence: TKSDPRCLTRYYSSF [synthetic wild type FVIII 15 mer peptide]
Stability Index [1]: 0.0
Stability Index [2]: 0.8
Stability Index [3]: 45.5
Stability Index [4]: 2.4
Stability Index [5]: 1.6
Stability Index [6]: 0.1
Binding Score [7]: 0.0%
Binding Score [8]: 23.1%
Binding Score [9]: 37.9%
Binding Score [10]: 12.6%
Binding Score [11]: 26.8%
Binding Score [12]: 0.8%

Sequence: TLTLFPFSGETVFMS [synthetic wild type FVIII 15 mer peptide]
Stability Index [1]: 0.0
Stability Index [2]: 0.0
Stability Index [3]: 2.3
Stability Index [4]: 0.0
Stability Index [5]: 0.0
Stability Index [6]: 0.6
Binding Score [7]: 0.0%
Binding Score [8]: 0.1%
Binding Score [9]: 41.4%
Binding Score [10]: 0.0%
Binding Score [11]: 0.4%
Binding Score [12]: 7.3%

Sequence: TVEDGPTKSDPRCLT [synthetic wild type FVIII 15 mer peptide]
Stability Index [1]: 0.0
Stability Index [2]: 0.0
Stability Index [3]: 0.0
Stability Index [4]: 0.0
Stability Index [5]: 0.0
Stability Index [6]: 0.0
Binding Score [7]: 0.0%
Binding Score [8]: 0.0%
Binding Score [9]: 0.0%
Binding Score [10]: 0.2%
Binding Score [11]: 0.0%
Binding Score [12]: 0.2%

Sequence: YNIYPHGITDVRPLY [synthetic wild type FVIII 15 mer peptide, region of ns-SNP R484H]
Stability Index [1]: 0.1
Stability Index [2]: 1.1
Stability Index [3]: 2.0
Stability Index [4]: 0.0
Stability Index [5]: 0.1
Stability Index [6]: 0.2
Binding Score [7]: 0.1%
Binding Score [8]: 35.8%
Binding Score [9]: 40.8%
Binding Score [10]: 0.2%
Binding Score [11]: 0.1%
Binding Score [12]: 2.1%

Now from value to sequence:

Stability Index [1]: 0.0
Stability Index [2]: 0.5
Stability Index [3]: 285.5
Stability Index [4]: 0.0
Stability Index [5]: 16.6
Stability Index [6]: 0.2
Binding Score [7]: 0.1%
Binding Score [8]: 7.8%
Binding Score [9]: 237.9%
Binding Score [10]: 0.5%
Binding Score [11]: 13.8%
Binding Score [12]: 2.4%
Sequence: SDPRCLTRYYSSFVN [synthetic wild type FVIII 15 mer peptide]

Stability Index [1]: 0.0
Stability Index [2]: 0.0
Stability Index [3]: 0.0
Stability Index [4]: 0.1
Stability Index [5]: 0.0
Stability Index [6]: 0.0
Binding Score [7]: 0.0%
Binding Score [8]: 0.1%
Binding Score [9]: 0.0%
Binding Score [10]: 1.7%
Binding Score [11]: 0.0%
Binding Score [12]: 0.4%
Sequence: SYDGAYAPVLQDFRS [synthetic wild type FVIII 15 mer peptide, region of ns-SNP D1241E]

Stability Index [1]: 0.0
Stability Index [2]: 0.0
Stability Index [3]: 0.0
Stability Index [4]: 0.0
Stability Index [5]: 0.0
Stability Index [6]: 0.2
Binding Score [7]: 0.0%
Binding Score [8]: 2.8%
Binding Score [9]: 0.0%
Binding Score [10]: 0.0%
Binding Score [11]: 0.0%
Binding Score [12]: 1.5%
Sequence: SYWKASEGAEYDDQT [synthetic wild type FVIII 15 mer peptide]

Stability Index [1]: 40.8
Stability Index [2]: 5.3
Stability Index [3]: 983.1
Stability Index [4]: 0.0
Stability Index [5]: 30.5
Stability Index [6]: 0.9
Binding Score [7]: 34.0%
Binding Score [8]: 49.4%
Binding Score [9]: 819.2%
Binding Score [10]: 0.0%
Binding Score [11]: 25.4%
Binding Score [12]: 8.2%
Sequence: TRYLRIHPQSWVHQI [synthetic wild type FVIII 15 mer peptide]

Stability Index [1]: 0.0
Stability Index [2]: 0.0
Stability Index [3]: 7.8
Stability Index [4]: 0.4
Stability Index [5]: 0.1
Stability Index [6]: 0.1
Binding Score [7]: 0.0%
Binding Score [8]: 0.2%
Binding Score [9]: 95.8%
Binding Score [10]: 2.7%
Binding Score [11]: 2.2%
Binding Score [12]: 1.2%
Sequence: VVNSLDPPLLTRYLR [synthetic wild type FVIII 15 mer peptide]

Stability Index [1]: 20.6
Stability Index [2]: 30.2
Stability Index [3]: 1434.9
Stability Index [4]: 2.4
Stability Index [5]: 281.7
Stability Index [6]: 61.0
Binding Score [7]: 17.2%
Binding Score [8]: 174.3%
Binding Score [9]: 1195.7%
Binding Score [10]: 7.9%
Binding Score [11]: 234.7%
Binding Score [12]: 59.3%
Sequence: YIRLHPTHYSIRSTL [synthetic wild type FVIII 15 mer peptide]

Stability Index [1]: 0.0
Stability Index [2]: 33.1
Stability Index [3]: 723.1
Stability Index [4]: 0.2
Stability Index [5]: 1.7
Stability Index [6]: 30.9
Binding Score [7]: 0.0%
Binding Score [8]: 114.1%
Binding Score [9]: 602.6%
Binding Score [10]: 1.8%
Binding Score [11]: 1.4%
Binding Score [12]: 44.5%
Sequence: YISQFIIMYSLDGKK [synthetic wild type FVIII 15 mer peptide]
